“And” between values parts separate entries of the source, which are not always exact repeats. Identical values can stand only once. Like-named read-outs stand apart in the source and are kept apart here.
Key:
Myzus persicae = assay: Myzus test (MYZUPE spray treatment); format: in vivo; conditions: for pest or weed control at 500 g/ha / inhibition at 20 g/ha: Myzus persicae, 144 h; for pest or weed control at 500 g/ha / effect (kill of aphids): after 6 days, 500 g/ha; for pest or weed control at 500 g/ha: read-out: effect (kill of aphids); for inhibition at 20 g/ha: read-out: % activity MYZUPE
Excerpt: Disks of Chinese cabbage (Brassica pekinensis) infested by all stages of the green peach aphid (Myzus persicae) are sprayed with an active compound formulation of the desired concentration.

Tetranychus urticae = assay: Tetranychus test, OP-resistant (TETRUR spray treatment); format: in vivo; conditions: for pest or weed control at 100 g/ha / inhibition at 20 g/ha: Tetranychus urticae, 144 h; for pest or weed control at 100 g/ha / effect (kill of spider mites): after 6 days; for pest or weed control at 100 g/ha: read-out: effect (kill of spider mites); for inhibition at 20 g/ha: read-out: % activity TETRUR
Spodoptera frugiperda = Spodoptera frugiperda test (SPODFR spray treatment); format: in vivo; conditions: 500 g/ha, after 7 days
Phaedon cochleariae = assay: Phaedon test (PHAECO spray treatment); conditions: for effect (kill of beetle larvae): 500 g/ha, after 7 days; for inhibition at 20 g/ha: Phaedon cochleariae, 168 h, read-out: % activity PHAECO
human ACC1 [1] = target: T1, human ACC1 (Homo sapiens, UniProt Q13085); assay: Human ACC1 enzyme assay (ADP-Glo); format: biochemical; conditions: individual measurements; read-out: ACC 1 IC50
T1 construct: FLAG (C); made in house; host or cells: baculovirus-infected insect cells (Hi5)

human ACC1 [2] = assay: Human ACC1 enzyme assay (ADP-Glo); format: biochemical
KM12 = assay: Tumour cell proliferation, CellTiter-Glo, 96-hour incubation, KM12; format: cell-based; conditions: Homo sapiens, KM12, 96 h; read-out: KM12 IC50
Protocol: (§1) In accordance with the invention, the substances were tested in cell-based assays for the ability of the substances of inhibiting tumour cell proliferation after a 96-hour incubation with the substance. Cell viability was tested using the CellTiter-Glo® luminescent cell viability assay (Promega). The cells were sown at a density of 2000-5000 cells/well (depending on the cell line) in 100 μl growth medium on 96-well microtiter plates. For each cell line examined, cells were sown on a separate plate to determine the luminescence at t=0 hours and t=96 hours. After overnight incubation at 37° C., the luminescence values for the t=0 samples were determined. The dose plates for the t=96 hours points in time were treated with substances diluted with growth medium. The cells were then incubated at 37° C. for 96 hours, and the luminescence values for the t=96 hours samples were then determined. For data analysis, the t=0 values were subtracted from the t=96 hours values for treated and untreated samples. The differences in luminescence in percent between substance-treated samples and control values were used to determine the growth inhibition in percent.
(§2) The substances were tested in the following cell lines which represent the stated indications in an exemplary manner: […]

PC3 = assay: Tumour cell proliferation, CellTiter-Glo, 96-hour incubation, PC3; format: cell-based; conditions: Homo sapiens, PC-3, 96 h; read-out: PC3 IC50
Protocol: as §1, §2

H460 = assay: Tumour cell proliferation, CellTiter-Glo, 96-hour incubation, H460; format: cell-based; conditions: Homo sapiens, NCI-H460, 96 h; read-out: H460 IC50
Protocol: as §1, §2

MCF7 = assay: Tumour cell proliferation, CellTiter-Glo, 96-hour incubation, MCF7; format: cell-based; conditions: Homo sapiens, MCF7, 96 h; read-out: MCF7 IC50
Protocol: as §1, §2

human ACC2 = human ACC2 (Homo sapiens, UniProt O00763); assay: Human ACC2 enzyme assay (ADP-Glo); conditions: ACC 2 IC50, individual measurements
Sequence of human ACC2 (O00763 27-2458 limits assumed): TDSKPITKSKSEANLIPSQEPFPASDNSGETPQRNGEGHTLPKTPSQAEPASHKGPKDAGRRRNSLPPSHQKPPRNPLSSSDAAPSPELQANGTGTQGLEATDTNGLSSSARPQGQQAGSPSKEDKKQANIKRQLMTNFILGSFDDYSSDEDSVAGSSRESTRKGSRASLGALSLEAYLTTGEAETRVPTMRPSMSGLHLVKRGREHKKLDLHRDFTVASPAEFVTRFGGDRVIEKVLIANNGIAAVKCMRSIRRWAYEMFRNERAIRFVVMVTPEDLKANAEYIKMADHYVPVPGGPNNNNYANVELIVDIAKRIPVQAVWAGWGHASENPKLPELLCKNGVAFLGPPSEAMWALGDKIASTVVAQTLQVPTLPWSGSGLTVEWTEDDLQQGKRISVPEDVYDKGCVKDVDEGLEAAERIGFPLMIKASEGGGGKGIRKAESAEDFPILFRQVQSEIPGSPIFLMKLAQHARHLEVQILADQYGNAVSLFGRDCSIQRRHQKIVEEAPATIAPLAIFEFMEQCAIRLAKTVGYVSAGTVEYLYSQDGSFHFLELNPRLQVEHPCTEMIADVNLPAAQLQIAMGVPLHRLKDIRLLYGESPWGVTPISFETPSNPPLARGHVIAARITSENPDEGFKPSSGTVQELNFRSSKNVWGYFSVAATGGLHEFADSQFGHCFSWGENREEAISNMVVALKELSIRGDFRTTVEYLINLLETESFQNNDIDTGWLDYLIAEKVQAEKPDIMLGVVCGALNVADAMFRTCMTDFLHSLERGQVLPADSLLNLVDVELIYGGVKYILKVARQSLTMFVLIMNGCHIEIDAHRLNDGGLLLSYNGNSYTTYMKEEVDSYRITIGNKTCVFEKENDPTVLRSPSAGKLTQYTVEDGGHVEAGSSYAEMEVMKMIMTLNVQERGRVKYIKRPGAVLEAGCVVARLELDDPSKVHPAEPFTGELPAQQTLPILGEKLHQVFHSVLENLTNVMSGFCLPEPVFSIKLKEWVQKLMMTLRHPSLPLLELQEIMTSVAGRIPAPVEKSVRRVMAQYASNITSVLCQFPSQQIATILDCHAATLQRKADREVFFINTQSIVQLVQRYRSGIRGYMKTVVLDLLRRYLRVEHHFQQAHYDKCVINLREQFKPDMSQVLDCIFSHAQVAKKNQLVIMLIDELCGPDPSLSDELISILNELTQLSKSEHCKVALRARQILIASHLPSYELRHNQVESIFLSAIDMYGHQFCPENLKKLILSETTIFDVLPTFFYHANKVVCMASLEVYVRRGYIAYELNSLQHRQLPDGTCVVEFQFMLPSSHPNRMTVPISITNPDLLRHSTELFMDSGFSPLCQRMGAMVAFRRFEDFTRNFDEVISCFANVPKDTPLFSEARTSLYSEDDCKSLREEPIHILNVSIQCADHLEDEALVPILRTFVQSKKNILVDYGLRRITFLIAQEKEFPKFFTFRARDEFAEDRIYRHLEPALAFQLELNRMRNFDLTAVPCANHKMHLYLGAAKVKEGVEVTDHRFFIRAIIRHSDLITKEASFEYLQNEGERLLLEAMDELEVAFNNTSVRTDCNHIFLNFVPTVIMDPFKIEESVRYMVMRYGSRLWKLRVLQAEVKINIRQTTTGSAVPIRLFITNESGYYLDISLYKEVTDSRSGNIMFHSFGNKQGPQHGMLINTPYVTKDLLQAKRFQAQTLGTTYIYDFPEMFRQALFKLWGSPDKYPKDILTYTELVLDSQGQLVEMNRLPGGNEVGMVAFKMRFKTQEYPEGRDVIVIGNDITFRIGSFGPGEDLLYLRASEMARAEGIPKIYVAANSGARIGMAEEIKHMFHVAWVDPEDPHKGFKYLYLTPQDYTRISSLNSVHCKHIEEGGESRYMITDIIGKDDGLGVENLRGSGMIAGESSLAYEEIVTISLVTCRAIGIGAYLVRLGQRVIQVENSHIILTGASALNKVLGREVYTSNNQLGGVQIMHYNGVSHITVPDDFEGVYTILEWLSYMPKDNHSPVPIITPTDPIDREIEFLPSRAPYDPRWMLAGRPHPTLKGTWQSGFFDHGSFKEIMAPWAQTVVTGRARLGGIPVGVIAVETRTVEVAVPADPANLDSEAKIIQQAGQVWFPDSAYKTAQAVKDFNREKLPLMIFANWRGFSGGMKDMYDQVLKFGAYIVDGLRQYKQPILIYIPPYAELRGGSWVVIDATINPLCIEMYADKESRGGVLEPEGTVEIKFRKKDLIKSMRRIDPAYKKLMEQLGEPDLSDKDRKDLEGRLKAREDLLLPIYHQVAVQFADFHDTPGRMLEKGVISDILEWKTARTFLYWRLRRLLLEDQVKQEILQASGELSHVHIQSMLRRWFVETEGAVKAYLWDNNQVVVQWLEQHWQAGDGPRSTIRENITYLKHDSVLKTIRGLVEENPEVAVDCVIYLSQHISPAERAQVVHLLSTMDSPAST

In the case of `CCc1cc(C)cc(C)c1C1=C(OC(=O)C(C)C)C2(CCC(F)(F)CC2)NC1=O` [Example I-1-b-1], the pest or weed control at 500 g/ha (Myzus persicae) is reported as 100% and the pest or weed control at 100 g/ha (Tetranychus urticae; 100 g/ha) is reported as 100%.
For `CCc1cc(C)cc(C)c1C1=C(O)C2(CCC(F)(F)CC2)NC1=O` [Example I-1-a-11], the “effect (kill of spider mites)” value (Tetranychus urticae; 100 g/ha) was 100%.
In the case of `Cc1ccc(-c2ccc(F)cc2)c(C)c1C1=C(O)C2(CCC(F)(F)CC2)OC1=O` [Example I-2-a-2], the “effect (kill of caterpillars)” value (Spodoptera frugiperda) is reported as 100%, the “effect (kill of aphids)” value (Myzus persicae) is reported as 100% and the “effect (kill of spider mites)” value (Tetranychus urticae; 500 g/ha) is reported as 100%. The “effect (kill of beetle larvae)” value (Phaedon cochleariae) was 100%.
With `Cc1cc(Br)cc(C)c1C1=C(O)C2(CCC(F)(F)CC2)NC1=O` [Example I-1-a-5] the “effect (kill of aphids)” value (Myzus persicae) was 100%, the “effect (kill of spider mites)” value (Tetranychus urticae; 100 g/ha) was 100% and the “effect (kill of beetle larvae)” value (Phaedon cochleariae) was 100%.
In the case of `Cc1cc(OCC(F)(F)F)cc(C)c1C1=C(O)C2(CCC(F)(F)CC2)NC1=O` [Example I-1-a-8], the pest or weed control at 500 g/ha (Myzus persicae) is reported as 100%, the pest or weed control at 100 g/ha (Tetranychus urticae; 100 g/ha) is reported as 100% and the “effect (kill of beetle larvae)” value (Phaedon cochleariae) is reported as 100%.
In the case of `Cc1ccc(-c2ccc(Cl)cc2)cc1C1=C(O)C2(CCC(F)(F)CC2)OC1=O` [Example I-2-a-3], the “effect (kill of caterpillars)” value (Spodoptera frugiperda) is reported as 100%, the “effect (kill of aphids)” value (Myzus persicae) is reported as 90% and the “effect (kill of beetle larvae)” value (Phaedon cochleariae) is reported as 100%.
With `Cc1ccc(-c2ccc(F)c(F)c2)cc1C1=C(O)C2(CCCCC2)NC1=O` [prior art WO 2008/067911 Table 1, reference compound] the inhibition at 20 g/ha (Myzus persicae) was 0%, the inhibition at 20 g/ha (Tetranychus urticae) was 0% and the inhibition at 20 g/ha (Phaedon cochleariae) was 0%.
In the case of `Cc1ccc(-c2ccc(F)c(F)c2)cc1C1=C(O)C2(CCC(F)(F)CC2)NC1=O` [Example 1-6, 3-(3′,4′-Difluoro-4-methylbiphenyl-3-yl)-8,8-difluoro-4-hydroxy-1-azaspiro[4.5]dec-3-en-2-one], the IC50 (human ACC1 [1]) is reported as 0.133 µM and 0.107 µM, the “Selectivity ACC1 vs. ACC2 (mean of the individual measurements ± standard deviation)” value (human ACC1 [2]) is reported as 51.9 ± 22.8 and the IC50 (KM12) is reported as 0.257 µM. For the same compound, the IC50 (PC3) was 0.158 µM, the IC50 (H460) was 0.371 µM and the IC50 (MCF7) was 0.045 µM. It also gave an inhibition at 20 g/ha (Myzus persicae; 20 g/ha, 6 d) of 100%, a pest or weed control at 500 g/ha (Myzus persicae) of 100% and an inhibition at 20 g/ha (Tetranychus urticae; 20 g/ha, 6 d) of 90%. For the same compound, the pest or weed control at 100 g/ha (Tetranychus urticae; 100 g/ha) was 90%, the melting point was 223 °C and the IC50 (human ACC2) was 3.87 µM and 8.03 µM. For the same compound, the “effect (kill of beetle larvae)” value (Phaedon cochleariae) was 100% and the inhibition at 20 g/ha (Phaedon cochleariae) was 67%.
For `Cc1ccc(-c2ccc(F)cc2)cc1C1=C(O)C2(CCC(F)(F)CC2)NC1=O` [Example 1-3, 8,8-Difluoro-3-(4′-fluoro-4-methylbiphenyl-3-yl)-4-hydroxy-1-azaspiro[4.5]dec-3-en-2-one], the IC50 (human ACC1 [1]) was 0.166 µM and 0.241 µM, the “Selectivity ACC1 vs. ACC2 (mean of the individual measurements ± standard deviation)” value (human ACC1 [2]) was greater than 101.8 ± 19.0 and the “Ratio of IC50s ACC2/ACC1 (respective measurement)” value (human ACC1 [2]; pairwise, same dilution series) was >120.8 and >82.8. The IC50 (KM12) was 0.578 µM, the IC50 (PC3) was 0.476 µM and the IC50 (H460) was 0.678 µM. The IC50 (MCF7) was 0.209 µM, the “effect (kill of caterpillars)” value (Spodoptera frugiperda) was 100% and the pest or weed control at 500 g/ha (Myzus persicae) was 90%. For the same compound, the pest or weed control at 100 g/ha (Tetranychus urticae; 100 g/ha) was 100%, the IC50 (human ACC2) was greater than 20 µM and the “effect (kill of beetle larvae)” value (Phaedon cochleariae) was 100%.
With `Cc1cc(C)c(C2=C(O)C3(CCC(F)(F)CC3)NC2=O)c(C)c1` [Example I-1-a-1] the “effect (kill of caterpillars)” value (Spodoptera frugiperda) was 83%, the pest or weed control at 500 g/ha (Myzus persicae) was 100% and the pest or weed control at 100 g/ha (Tetranychus urticae; 100 g/ha) was 100%.

Reference: US20140011853A1, “SUBSTITUTED 3-(BIPHENYL-3-YL)-8,8-DIFLUORO-4-HYDROXY-1-AZASPIRO[4.5]DEC-3-EN-2-ONES FOR THERAPY” (BAYER INTELLECTUAL PROPERTY GMBH, priority 2011, published 2014)
